Experiment [1] concerns MX-1 human triple-negative breast carcinoma cell line. Description: Efficacy of PEG-talazoparib conjugates in murine MX-1 xenografts (Example 9). The conditions noted are these: MX-1 tumors. In kind it is in vivo, mice.
Method: The MX-1 human triple-negative breast carcinoma cell line was obtained from Charles River Labs (Frederick, Md).
Tumor xenografts were established by subcutaneous injection with MX-1 tumor cells (2×10^6 cells in 100 μl of serum free medium mixed 1:1 with Matrigel) into the right flank of female NCr nude mice. When tumor xenografts reached 1000-1500 mm^3 in donor mice, they were resected, divided into even-size fragments (approximately 2.5×2.5 mm), embedded in Matrigel and re-implanted via subcutaneous trocar implantation in receiver mice.
Solutions of talazoparib (50 μM) were prepared as by adding a solution of talazoparib in DMSO (55 mM, 454 μL) to the oral dosing buffer consisting of 10% dimethylacetamide, 6% solutol, and 84% PBS. Talazaparib content was determined by ε310nm=9872 M^−1cm^−1 in 10% dimethylacetamide, 6% solutol, and 84% PBS Solutions were delivered p.o. at 8.5-19 mL/kg to deliver 0.4 to 0.9 μmol/kg talazoparib. Solutions of PEG-talazoparib (Example 1, R^1=MeSO2, R^7=MeO(CH2)2) containing up to 8 mM talazoparib (2 mM PEG˜[talazoparib]4) were prepared in isotonic acetate (pH 5), sterile filtered through a 0.2 μM syringe filter, and TLZ content was determined by ε310nm=9872 M^−1cm^−1 in 10% dimethylacetamide, 6% solutol, and 84% PBS. Doses were delivered IP at ˜15 mL/kg mL/kg to deliver 15-120 μmol drug/kg.
Mice bearing MX-1 tumors were dosed when tumors reached ˜100-300 mm^3 in size. Dosing solutions were administered as indicated above. Tumor volumes (caliper measurement: 0.5×(length×width)) and body weights were measured twice weekly. […] Mice bearing large tumors were dosed when tumors reached 1000-3000 mm^3.
Progressive disease (PD) was classified as PD1 or PD2 based on the tumor growth delay (TGD) values calculated as the number of days to event. For each mouse, TGD was calculated by dividing the time to event by the median time to event in the control group. […] Median times to event were estimated based on the Kaplan-Meier event-free survival distribution.
For experiment [2], the system named is BRCA1-deficient MX-1 tumors. In kind it is in vivo.
The next experiment concerns DLD-1 BRCA2^−/−. The conditions noted are these: daily TLZ×21 days.
The next experiment relates to KT-10 tumors. Conditions: KT-10, 0.1 mg/kg TLZ daily dosing; reference (26); cited from earlier work.
For a further experiment, the system named is DLD-1 BRCA2^wt/wt. The experiment is described as follows: Efficacy in murine DLD-1 BRCA2^wt/wt xenografts (Example 10). The conditions noted are these: QD oral.

Here are results for one compound from US12472261B2, “Conjugated inhibitors of DNA damage response” (ProLynx LLC, priority 2019, dated 2025).

In the case of `Cn1ncnc1[C@H]1c2n[nH]c(=O)c3cc(F)cc(c23)N[C@@H]1c1ccc(F)cc1` [TLZ, talazoparib], in experiment [1] (dose 0.4 μmol/kg), the “MCR (number of mice, Houghton analysis)” value turned out to be 1 and the “PD2 (number of mice, Houghton analysis)” value was determined as 4. For the same compound, in experiment [1] (dose 0.7 μmol/kg), the “CR (number of mice, Houghton analysis)” value was found to be 2; the “MCR (number of mice, Houghton analysis)” value is on record as 1; the “PR (number of mice, Houghton analysis)” value was determined as 2. Moreover, the “duration of growth suppression” value in experiment [2] (MX-1, daily oral 0.4 μmol/kg (0.15 mg/kg)) is listed as roughly 3 wks. Moreover, the “median EFS” value in experiment [2] (MX-1, daily oral 0.4 μmol/kg, event = doubling of initial tumor volume) is 35 days. Moreover, the “increase in median event free survival” value in the experiment with DLD-1 BRCA2^−/− amounted to 11 fold. For the same compound, the “response of KT-10 to daily TLZ” value in the experiment with KT-10 tumors is “maintained CRs over 12 wks”. Besides, in the experiment on DLD-1 BRCA2^wt/wt, the “median EFS of treated animals vs controls” value is reported as “no increase” and the tumor response result is “resistant”.
